Source: article PMC4721142, “Randomized controlled studies on the efficacy of antiarthritic agents in inhibiting cartilage degeneration and pain associated with progression of osteoarthritis in the rat” (Arthritis Research & Therapy, 2016)
Where “and” joins values, the source holds several entries; their conditions need not be identical. Identical values can stand only once.

Columns and labels:
[1] = tested on: RAW 264.7 cells; experiment: RANKL-mediated osteoclastogenesis / matrix resorption (Osteologic) assay; type: cell-based, murine
Procedure: RAW 264.7 cells (American Type Culture Collection [ATCC], Manassas, VA, USA), a murine monocytic cell line that differentiates in the presence of RANKL, was used for measurements of osteoclastogenesis and osteoclast activity. Cells were amplified on nonadherent culture substratum in high-glucose Dulbecco’s modified Eagle’s medium (DMEM) containing 10 % fetal bovine serum (FBS) and penicillin-streptomycin in a 37 °C, 5 % CO2, humidified incubator and were passaged by manual dissociation. […] Plates were subsequently rinsed, bleached, dried, and analyzed for matrix degradation using a Nikon COOLSCOPE (Nikon Instruments, Melville, NY, USA). Matrix resorption was quantified using EclipseNet (Nikon Instruments)/Visiopharm (Visiopharm, Hørsholm, Denmark) software (see Additional file 1).
In Vitro Osteoclastogenesis
Osteoclastogenic activity was measured using BD osteologic plates and quantitation of the degree of bone matrix digestion on the plate surface. Images from the BD Osteologic assay used to […]
left pane depicts an example of a control well after removal of cells from matrix. Pseudocoloring of matrix (blue) and pits (green) is shown in the far right pane. A transparent overlay of the two images is shown in the center.
Figure 5 - Measurement of drug effects on osteoclastogenesis and osteoclast activity.
Comparisons were made between RANKL treated control wells and wells treated with both RANKL and […]
Agents were initially tested either during differentiation or post differentiation in the bone assay […]
(e.g., Figure 2, Sulfazalazine). […]
indicated (*/**: p < 0.05/0.01, unpaired t-test versus RANKL control). […]

[2] = tested on: NF-κB; experiment: TNF-α-stimulated NF-κB dual luciferase reporter assay in HeLa cells; type: cell-based
Procedure: NF-κB activity was assessed using a previously described dual plasmid reporter system. HeLa cells were transfected with NF-κB luciferase (Stratagene Products Division, Agilent Technologies, La Jolla, CA, USA) and pRLuc-N3 (PerkinElmer, Waltham, MA, USA) at an 8:1 ratio, respectively, in triplicate. […] NF-κB activity was measured 5 h later with a Dual-Glo Luciferase Assay (Promega, Madison, WI, USA) and an Omni plate reader (BMG Labtech, Cary, NC, USA). The ratio of firefly luciferase luminescence (NF-κB reporter) to Renilla luciferase luminescence (control) was normalized for the number of viable transfected cells. Data are reported as a ratio of activity of viable treated cells over the activity of cells not exposed to TNF-α or drug (fold stimulation above basal untreated levels of activity). The viability of HeLa cells with and without drug was also measured using a CellTiter-Glo luminescent viability assay (Promega). […]
NF-κB activity was assessed in HeLa cells that were transiently transfected with two reporter constructs as described in the manuscript. Agents were tested for their ability to block TNF- […]
Expression of the luciferase from the Renilla construct was used as a measure of viability, which was confirmed with a cytotoxicity assay (see later section).

[3] = tested on: SW982; experiment: Synovial toxicity (CellTiter-Glo), with or without TNF-α
Procedure: Viability was measured with the CellTiter-Glo luminescent viability assay (Promega). […] To more accurately predict the effects of the drugs on osteoarthritic synovium, cells were tested with or without TNF-α (20 ng/ml; BioSource).
In Vitro Toxicity Testing with a Synovial Cell Line
Compounds were tested for synovial toxicity using SW982 cells alone or in the presence of TNF as

[4] = tested on: HeLa cells; experiment: HeLa cell viability (CellTiter-Glo)
Procedure: NF-κB activity was assessed using a previously described dual plasmid reporter system. HeLa cells were transfected with NF-κB luciferase (Stratagene Products Division, Agilent Technologies, La Jolla, CA, USA) and pRLuc-N3 (PerkinElmer, Waltham, MA, USA) at an 8:1 ratio, respectively, in triplicate. […] NF-κB activity was measured 5 h later with a Dual-Glo Luciferase Assay (Promega, Madison, WI, USA) and an Omni plate reader (BMG Labtech, Cary, NC, USA). The ratio of firefly luciferase luminescence (NF-κB reporter) to Renilla luciferase luminescence (control) was normalized for the number of viable transfected cells. Data are reported as a ratio of activity of viable treated cells over the activity of cells not exposed to TNF-α or drug (fold stimulation above basal untreated levels of activity). The viability of HeLa cells with and without drug was also measured using a CellTiter-Glo luminescent viability assay (Promega).
In Vitro Hela Cell Drug Toxicity Testing
Potential drug toxicity was measured using a CTG assay and HeLa cells (Promega). Drugs not tested in
this assay were tested in either of the in vitro toxicity assays already presented (synovial or chondrocyte
Table 3- Drug toxicity measured using a CTG assay and HeLa cells.

[5] = tested on: Normal human articular chondrocytes; experiment: Cytotoxicity to chondrogenic pellets (CellTiter-Blue)
Procedure: Differentiated chondrogenic pellets were used both to test the ability of drugs to block MMP-13 activity and to test for drug toxicity. […] Supernatants were collected and analyzed for MMP-13 using an enzyme-linked immunosorbent assay (GE Healthcare Life Sciences, Little Chalfont, UK). Cytotoxicity to pellets was assessed using CellTiter-Blue (Promega).

[6] = tested on: MMP-13; experiment: MMP-13 ELISA on supernatants of TNF-α-treated chondrogenic pellets; type: cell-based, human
[7] = tested on: IKK-2; conditions: reported; cited from earlier work
[8] = Comparison of in vitro screens: overlapping effective and nontoxic range;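 further: compares non-toxic ranges in synovial cells and chondrocytes with effective ranges against NFkB, MMP-13 and osteoclasts, giving their overlap as the predicted efficacy range in uM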
[9] = tested on: MMT/MCLT rat model of OA; experiment: MMT/MCLT trial 1 histopathology (same doses); type: in vivo; conditions: low or only dose
Description: For MMT/MCLT rat knee joints, sections were cut in 200-μm steps; stained with toluidine blue (also with a right and left half per section); and similarly analyzed for cartilage degeneration, proteoglycan loss, collagen damage, and osteophyte formation. Results were averaged across the three sections for an overall semiquantitative score. Regional differences across the tibial plateau were taken into consideration by dividing each section into three zones delineated using an ocular micrometer (outside, middle, and inside). Scores were based on the percentage of area affected within the zone.
Cartilage degeneration in the tibia was scored on a 5-point scale as detailed in the Methods section of Additional file 1. The total extent of degeneration of the tibial plateau was measured (in micrometers) and included an analysis of cell loss, proteoglycan loss, and collagen damage. Significant cartilage degeneration reflecting any degeneration extending through more than 50 % of the cartilage thickness was also measured. Collagen damage across the medial tibial plateau (the most severely affected section of the two halves) was also quantified.
Osteophytes and femoral cartilage degeneration were analyzed as detailed in Additional file 1. Scoring of the osteophytes and categorization into small, medium, and large was performed using an ocular micrometer. The actual osteophyte measurement (tidemark to farthest distance point extending toward the synovium) was also recorded. The femoral cartilage degeneration score and the three-zone sum of the tibial cartilage degeneration scores (mean of three levels) were summed to create a total cartilage degeneration score. The mean osteophyte score for each joint was added to this value to create a total joint score. […]
Histopathology MMT/MCLT Model

[10] = tested on: MIA rat model of OA; experiment: MIA trial 1 weight bearing (daily s.c. clonidine 0.1, fluocinolone 0.002, morphine 6 mg/kg); type: in vivo
Procedure: (§1) Weight bearing (WB; incapacitance) was measured five times per day, once per week, using a Linton incapacitance meter (Stoelting Co., Wood Dale, IL, USA). Rats were acclimated to the meter before study initiation, and, similarly, immediately before WB, the animals were placed in the meter and allowed to acclimate for 2–5 minutes. Each hind paw was placed on a separate force plate so that the force exerted by each side could be averaged over a 5-second interval, and the mean of three readings was taken for each data point. Right paw force was compared with that on the left side for each group to confirm that animals were displaying incapacitance and/or pain behavior. Differences in force (left minus right) and right paw force as a percentage of the total force exerted by both paws were determined and compared between groups.
Following isoflurane anesthesia, 50 μl (2 mg) of MIA was injected into the synovial space of the left knee. Animals were randomly assigned to groups, and pain behavior was assessed 7, 14, 21, and 28 days following MIA injection and intervention using WB with the Stoelting incapacitance meter (trial 1) or the dRS test (trials 2 and 3). […] Animals received MIA treatment and then saline control or therapeutic. […] Histopathology was performed at each time point and at study termination. All studies were conducted in accordance with the International Association for the Study of Pain Guidelines and were approved by the Algos Therapeutics, Inc. Institutional Animal Care and Use Committee (IACUC) before initiation. Those running the studies were blind to the treatments. See Additional file 1 for further details. […]
dosing were housed three per cage. Animals had free access to food and water and were maintained […]
The animal colony was maintained at approximately 21 °C. All experiments were conducted in accordance with the International Association for the Study of Pain Guidelines.

[11] = tested on: MMT/MCLT rat model of OA; experiment: MMT/MCLT trial 1 weight bearing (daily morphine 10 mg/kg, tacrolimus 0.3 or 0.6 mg/kg, fluocinolone 5 or 10 μg/kg, clonidine 100 μg/kg, alendronate 10 μg/kg i.p.; curcumin, withaferin 50 mg/kg p.o.); type: in vivo; conditions: low or only dose
Procedure: as §1
Following isoflurane anesthesia, the medial collateral ligament was transected just below its attachment to the meniscus in the right knee. The meniscus was cut at its narrowest point away from the ossicles so as not to damage the tibial surface and to ensure that the anterior and posterior meniscus halves were freely movable. […] In trial 2, drugs were administered IA weekly beginning 1 week following surgery. Three weeks postsurgery, animals were humanely killed and their right knees were collected for histopathology. All studies were conducted in accordance with the International Association for the Study of Pain Guidelines and were approved by the Bolder BioPATH IACUC (Boulder, CO, USA) in compliance with regulations before study initiation (IACUC protocol BBP03-006). Those running the studies were blinded to the treatments. See Additional file 1 for further details.
Isoflurane and the right knee area prepared for surgery. A skin incision was made over the medial aspect of the knee and the medial collateral ligament was exposed by blunt dissection and then transected. The medial meniscus was cut through the full thickness to simulate a complete tear and the skin was then closed with suture.
All pharmaceutical agents were prepared and stored as recommended by the supplier. Daily drug preparations were made fresh from stock solutions. […]
In Trial 2 drugs were […]
administered IA weekly beginning one week following surgery. […]
were delivered by gavage and were prepared in 0.3% Methyl Cellulose.
WB was measured five times a day, once a week, using a Linton incapacitance meter (Stoelting Co.) to assess pain behavior. Rats were acclimated to the incapacitance meter prior to study initiation.
Similarly, immediately prior to WB animals were placed in the incapacitance meter and allowed to acclimate for 2-5 minutes. Each hind paw was placed on a separate force plate so that the force exerted by each side could be averaged over a 5 second interval and the mean of three readings taken for each data point. Right paw force was compared to left for each group to confirm that animals were displaying incapacitance / pain behavior. Difference in force (left minus right) and right paw force as a percentage of the total force exerted by both paws were determined and compared between groups. Three weeks after surgery, animals were humanely euthanized and right knees collected for histopathology evaluation.
Figure 2. MMT/MCLT Trial Timeline […]
MMT/MCLT Dosing (once/day)
The study design and animal usage was approved by Bolder BioPATH’s Institutional Animal Care and Use Committee (IACUC) for compliance with regulations prior to study initiation (IACUC […]
Labs. Animals were identified by a distinct mark at the base of the tail delineating group and animal number. After randomization, all cages were labeled with protocol number, group numbers, and animal numbers with appropriate color-coding (see protocol).

[12] = tested on: NF-κB; conditions: cited from earlier work

NC(=O)Nc1sc(-c2ccccc2)cc1C(N)=O [IKK inhibitor VI, (5-Phenyl-2-ureido)thiophene-3-carboxamide]
Effective range against Osteoclasts [1]: ≥ 0.5 µM
Effective against NF κβ (p<0.05) [2]: 0.23 to 15.3 µM
Effective range against NFkB [2]: ≥ 0.95 µM
Non-toxic range (Synovial) [3]: 0.028 to 0.25 µM
Non-toxic concentrations [4]: 0 to 0.9 M
Toxic concentrations (p<0.05) [4]: 1.9 to 3.83 µM
Non-toxic range (Chondrocyte) [5]: 0.23 to 15.6 µM
Effective range against MMP-13 [6]: ≥ 0.24 µM
IC50 [7]: 13 to 18 nM
Non-toxic & predicted range of efficacy [8]: 0.95 to 4.0 µM
Overlapping effective and nontoxic range ([8]; inhibits with minimal or no toxicity to synovium or cartilage, overlapping range if effective in more than one assay): 0.24 to 15.2 µM

CN1CC[C@]23c4c5ccc(O)c4O[C@H]2[C@@H](O)C=C[C@H]3[C@H]1C5 [Morphine]
Bone score ([9]; mean): 3.63
Depth ratio any matrix change, mean ([9]; mean): 0.34
Depth ratio any matrix change, zone 2 ([9]; mean): 0.11
Femoral cartilage degeneration score ([9]; mean): 2.33 and 2.33 ± 0.66
Tibial cartilage degeneration score, 3-zone total ([9]; mean): 6.21
Tibial cartilage degeneration score, zone 1 ([9]; mean): 4.25
Tibial cartilage degeneration score, zone 2 ([9]; mean): 1.92
Tibial cartilage degeneration score, zone 3 ([9]; mean): 0.04
Tibial cartilage degeneration width, significant ([9]; mean): 666.67 µm
Tibial cartilage degeneration width, total ([9]; mean): 1279.17 µm
Tibial osteophyte measure ([9]; mean): 573.75 µm
Tibial osteophyte score ([9]; mean): 4.42
Total joint score ([9]; mean): 12.96 and 12.96 ± 0.89
Total joint score w/o femur ([9]; mean): 10.63
% decrease, bone score ([9]; vs saline group): -12%
% decrease, depth ratio mean ([9]; vs saline group): 5%
% decrease, depth ratio zone 2 ([9]; vs saline group): 42%
% decrease, femoral cartilage degeneration score ([9]; vs saline group): -27%
% decrease, osteophyte measure ([9]; vs saline group): -12%
% decrease, osteophyte score ([9]; vs saline group): -13%
% decrease, significant degeneration width ([9]; vs saline group): 8%
% decrease, tibial score 3-zone total ([9]; vs saline group): 5%
% decrease, tibial score zone 1 ([9]; vs saline group): 1%
% decrease, tibial score zone 2 ([9]; vs saline group): 13%
% decrease, tibial score zone 3 ([9]; vs saline group): 0%
% decrease, total degeneration width ([9]; vs saline group): 3%
% decrease, total joint score ([9]; vs saline group): -5%
% decrease, total joint score w/o femur ([9]; vs saline group): -2%
Weight bearing, hours after dosing with significant difference ([10]; day 14): 1 h
Weight bearing, hours after dosing with significant difference ([10]; day 21, BL baseline): BL, 1, 3
Weight bearing, hours with significant effect ([11]; day 7): 1 h
Weight bearing, hours with significant effect ([11]; day 21): 3,5 h

COc1ccc(/C=C/c2ccccc2F)cc1 [NF-κB activation inhibitor IV, (E)-2-fluoro-4′-methoxystilbene]
fold more potent than resveratrol at inhibiting NF-κB [12]: Experimentally used as an anti-inflammatory but not an antioxidant 130-fold more potent than resveratrol at inhibiting NF-κB [94]
